Laboratory results: patent publication US20240327351A1, “AMIDE AND ETHER SUBSTITUTED N-(1H-INDOL-7-YL)BENZENESULFONAMIDES AND USES THEREOF” (TRIANA BIOMEDICINES, INC., priority 2021, published 2024)

Tests used:
[1] = target: DCAF15 (Homo sapiens, UniProt Q66K64); test: HTRF competition assay, binary interaction between compounds and DCAF15; type: binding; conditions: competition with Alexa Fluor 647 tracer, His-tagged DCAF15 complex
Protocol: Example 7: Measurement of Binary Interaction Between Compounds And DCAF15 Using Homogeneous Time Resolved Fluorescence (HTRF)
DCAF15 interactions with test compounds were monitored using HTRF competition assays (Cisbio, Bedford, MA). Test compounds were first collected in a 384-well microplate (cat. #781280, Grenier Bio-One, Monroe, NC) as 10 mM stocks in 100% dimethyl sulfoxide (DMSO). A second stock plate (cat. #781280, Grenier Bio-One, Monroe, NC) was prepared through 3-fold serial dilution in DMSO of the afore-mentioned stocks using a Mosquito HTS dispenser (mosquito@ HTS, SPT Labtech, Boston, MA). 0.2 ul of these diluted stocks were then dispensed into a 384-well Optiplate (cat. #6007290, Perkin Elmer, Waltham, MA) in duplicate wells, to assemble the assay plate. The tracer molecule containing an Alexa Fluor 647 probe was prepared in 25 mM HEPES pH 7.5, 100 mM NaCl, 0.1 mg/ml BSA, 0.005% Tween 20, 0.5 mM TCEP (dilution buffer) to 612 nM (2.04×). Separately, His-tagged DCAF15 complex was prepared at 32 nM (4×) in the dilution buffer, and mAb Anti-6His-Eu cryptate Gold (cat. #61H12KLA, Cisbio, Bedford, MA) at 4× dilution in the detection buffer (cat. #61 DB9RDF, Cisbio, Bedford, MA). These two solutions were mixed and incubated for 15 min at room temperature. 9.8 ul of the tracer solution and 10 ul of the DCAF15/mAb Anti-6His-Eu cryptate Gold mixture were added sequentially to each well in the assay plate. Reaction mixtures with no DCAF15 added were included as positive controls. The final mixture was incubated for an hour at room temperature and spun down briefly before data collection at 615 nm and 666 nm using En Vision 2104 Multilabel Plate Reader (Perkin Elmer, Bedford, MA). Binding was estimated based on ratiometric analysis and titration curves were generated in GraphPad Prism (7.00, GraphPad, La Jolla, CA).

[2] = target: DCAF15/RBM39 (Homo sapiens, UniProt Q14498+Q66K64); test: AlphaLISA compound-induced DCAF15-RBM39 ternary complex formation; type: binding; conditions: His-tagged DCAF15 complex and biotin-carrying RBM39
Protocol: Example 6: Quantitative Evaluation of Compound-Induced Ternary Complex Formation Using Amplified Luminescent Proximity Homogeneous Assay
Compound-induced DCAF15-RBM39 ternary complex formation was monitored using AlphaLISA® assays (Perkin Elmer, Waltham, MA). Test compounds were first collected in a 384-well microplate (cat. #781280, Grenier Bio-One, Monroe, NC) as 2 mM stocks in 100% dimethyl sulfoxide (DMSO). These stocks were then serially diluted in DMSO by 3-fold into a new plate (cat. #781280, Grenier Bio-One, Monroe, NC) using a Mosquito HTS dispenser (mosquito@ HTS, SPT Labtech, Boston, MA). 0.2 ul of these diluted stocks were then dispensed into a 384-well Optiplate (cat. #6007290, Perkin Elmer, Waltham, MA) in duplicate wells, to assemble the final assay plate consisting of duplicated dose ranges. Separately, a protein mixture consisting of His-tagged DCAF15 complex and biotin-carrying RBM39, each at 408 nM (2.04×), was prepared in 50 mM HEPES, pH 7.5, 100 mM NaCl, 2 mM MgCl2, 0.1% BSA, 2 mM TCEP, 0.05% Tween-20 (dilution buffer). 9.8 ul of this protein mixture was then mixed with the compounds in the assay plate and incubated for one hour at room temperature. Reaction mixtures with no compounds added were included as negative controls, while a His-tagged and biotinylated GST protein was included to track general assay performance. Nickel Chelate AlphaLISA Acceptor beads (cat. #AL108M, Perkin Elmer, MA) and AlphaScreen Streptavidin Donor beads (cat. #6760002, Perkin Elmer, Waltham, MA) were prepared separately in the dilution buffer as 4× stocks (80 ug/ml). The beads were then added to the assay plate sequentially with incubation at room temperature for 1-2 hours after each addition. Signals were recorded using EnVision 2104 Multilabel Plate Reader (Perkin Elmer, Waltham, MA) and titration curves were generated in GraphPad Prism (7.00, GraphPad, La Jolla, CA).

| Structure (SMILES) | IC50 [1] [nM] | EC50 [2] [nM] |
| --- | --- | --- |
| CCN(CC)C(=O)c1ccc(CNC(=O)c2cccc(S(=O)(=O)Nc3ccc(Cl)c4c(Cl)c[nH]c34)c2F)cc1 [Compound 170] | 1000 to 10000 | 1000 to 10000 |
| CCN(CC)C(=O)c1ccc(CNC(=O)c2ccc(S(=O)(=O)Nc3ccc(Cl)c4c(Cl)c[nH]c34)c(F)c2)cc1 [Compound 171] | 1000 to 10000 | 1000 to 10000 |
| Cc1ccccc1Oc1ccccc1CNC(=O)c1cccc(S(=O)(=O)Nc2ccc(Cl)c3c(Cl)c[nH]c23)c1F [Compound 172] | 1000 to 10000 | 1000 to 10000 |
| Cc1ccccc1Oc1ccccc1CNC(=O)c1ccc(S(=O)(=O)Nc2ccc(Cl)c3c(Cl)c[nH]c23)c(F)c1 [Compound 173] | > 100000 | > 100000 |
| Cc1cc(CNC(=O)c2cccc(S(=O)(=O)Nc3ccc(Cl)c4c(Cl)c[nH]c34)c2F)nn1C [Compound 174] | 1000 to 10000 | < 1000 |
| Cc1cc(CNC(=O)c2ccc(S(=O)(=O)Nc3ccc(Cl)c4c(Cl)c[nH]c34)c(F)c2)nn1C [Compound 175] | 1000 to 10000 | < 1000 |
| CCc1nc(CN(C)C(=O)c2cccc(S(=O)(=O)Nc3ccc(Cl)c4c(Cl)c[nH]c34)c2F)no1 [Compound 176] | 1000 to 10000 | < 1000 |
| CCc1nc(CN(C)C(=O)c2ccc(S(=O)(=O)Nc3ccc(Cl)c4c(Cl)c[nH]c34)c(F)c2)no1 [Compound 177] | 1000 to 10000 | < 1000 |
| Cc1ccnc(CNC(=O)c2cccc(S(=O)(=O)Nc3ccc(Cl)c4c(Cl)c[nH]c34)c2F)c1 [Compound 178] | 1000 to 10000 | 1000 to 10000 |
| Cc1ccnc(CNC(=O)c2ccc(S(=O)(=O)Nc3ccc(Cl)c4c(Cl)c[nH]c34)c(F)c2)c1 [Compound 179] | 1000 to 10000 | < 1000 |
| Cc1ccnc([C@@H](NC(=O)c2ccc(S(=O)(=O)Nc3ccc(Cl)c4c(Cl)c[nH]c34)c(F)c2)C2CC2)c1 [Compound 180] | 1000 to 10000 | 1000 to 10000 |
| COc1cccc(Oc2ccc(CNC(=O)c3cccc(S(=O)(=O)Nc4ccc(Cl)c5c(Cl)c[nH]c45)c3F)cn2)c1 [Compound 181] | 1000 to 10000 | 1000 to 10000 |
| COc1cccc(Oc2ccc(CNC(=O)c3ccc(S(=O)(=O)Nc4ccc(Cl)c5c(Cl)c[nH]c45)c(F)c3)cn2)c1 [Compound 182] | > 100000 | > 100000 |
| Cc1cnc(CNC(=O)c2cccc(S(=O)(=O)Nc3ccc(Cl)c4c(Cl)c[nH]c34)c2F)cn1 [Compound 183] | 1000 to 10000 | < 1000 |
| Cc1cnc(CNC(=O)c2ccc(S(=O)(=O)Nc3ccc(Cl)c4c(Cl)c[nH]c34)c(F)c2)cn1 [Compound 184] | < 1000 | > 100000 |
| Cc1ccnc([C@@H](NC(=O)c2cccc(S(=O)(=O)Nc3ccc(Cl)c4c(Cl)c[nH]c34)c2F)C2CC2)c1 [Compound 185] | 1000 to 10000 | 1000 to 10000 |
| O=C(NCCOCC1CC1)c1cccc(S(=O)(=O)Nc2ccc(Cl)c3c(Cl)c[nH]c23)c1F [Compound 186] | 1000 to 10000 | 1000 to 10000 |
| O=C(NCCOCC1CC1)c1ccc(S(=O)(=O)Nc2ccc(Cl)c3c(Cl)c[nH]c23)c(F)c1 [Compound 187] | 1000 to 10000 | < 1000 |
| O=C(NCCOC1CCS(=O)(=O)CC1)c1cccc(S(=O)(=O)Nc2ccc(Cl)c3c(Cl)c[nH]c23)c1F [Compound 188] | 1000 to 10000 | < 1000 |
| O=C(NCCOC1CCS(=O)(=O)CC1)c1ccc(S(=O)(=O)Nc2ccc(Cl)c3c(Cl)c[nH]c23)c(F)c1 [Compound 189] | < 1000 | < 1000 |
| CCS(=O)(=O)CCNC(=O)c1cccc(S(=O)(=O)Nc2ccc(Cl)c3c(Cl)c[nH]c23)c1F [Compound 190] | 1000 to 10000 | < 1000 |

| Structure (SMILES) | IC50 [1] [nM] | EC50 [2] [nM] |
| --- | --- | --- |
| CCS(=O)(=O)CCNC(=O)c1ccc(S(=O)(=O)Nc2ccc(Cl)c3c(Cl)c[nH]c23)c(F)c1 [Compound 191] | < 1000 | < 1000 |
| CN1CC(CCNC(=O)c2cccc(S(=O)(=O)Nc3ccc(Cl)c4c(Cl)c[nH]c34)c2F)C1 [Compound 192] | < 1000 | < 1000 |
| CN1CC(CCNC(=O)c2ccc(S(=O)(=O)Nc3ccc(Cl)c4c(Cl)c[nH]c34)c(F)c2)C1 [Compound 193] | 1000 to 10000 | < 1000 |
| CN(C)C(=O)c1ccc(CCNC(=O)c2cccc(S(=O)(=O)Nc3ccc(Cl)c4c(Cl)c[nH]c34)c2F)cc1 [Compound 194] | 1000 to 10000 | 1000 to 10000 |
| CN(C)C(=O)c1ccc(CCNC(=O)c2ccc(S(=O)(=O)Nc3ccc(Cl)c4c(Cl)c[nH]c34)c(F)c2)cc1 [Compound 195] | 1000 to 10000 | 1000 to 10000 |
| CN(C)C(=O)C[C@H](NC(=O)c1cccc(S(=O)(=O)Nc2ccc(Cl)c3c(Cl)c[nH]c23)c1F)c1ccccc1 [Compound 196] | 1000 to 10000 | 1000 to 10000 |
| CN(C)C(=O)C[C@H](NC(=O)c1ccc(S(=O)(=O)Nc2ccc(Cl)c3c(Cl)c[nH]c23)c(F)c1)c1ccccc1 [Compound 197] | 1000 to 10000 | < 1000 |
| Cc1ccc(CCNC(=O)c2cccc(S(=O)(=O)Nc3ccc(Cl)c4c(Cl)c[nH]c34)c2F)o1 [Compound 198] | 1000 to 10000 | 1000 to 10000 |
| Cc1ccc(CCNC(=O)c2ccc(S(=O)(=O)Nc3ccc(Cl)c4c(Cl)c[nH]c34)c(F)c2)o1 [Compound 199] | 1000 to 10000 | 1000 to 10000 |
| O=C(NCCc1ccccn1)c1cccc(S(=O)(=O)Nc2ccc(Cl)c3c(Cl)c[nH]c23)c1F [Compound 200] | < 1000 | < 1000 |
| O=C(NCCc1ccccn1)c1ccc(S(=O)(=O)Nc2ccc(Cl)c3c(Cl)c[nH]c23)c(F)c1 [Compound 201] | 1000 to 10000 | < 1000 |
| COCCOCCCNC(=O)c1cccc(S(=O)(=O)Nc2ccc(Cl)c3c(Cl)c[nH]c23)c1F [Compound 202] | 1000 to 10000 | < 1000 |
| COCCOCCCNC(=O)c1ccc(S(=O)(=O)Nc2ccc(Cl)c3c(Cl)c[nH]c23)c(F)c1 [Compound 203] | 1000 to 10000 | < 1000 |
| O=C(NCCCOCc1ccccc1)c1cccc(S(=O)(=O)Nc2ccc(Cl)c3c(Cl)c[nH]c23)c1F [Compound 204] | 1000 to 10000 | 1000 to 10000 |
| O=C(NCCCOCc1ccccc1)c1ccc(S(=O)(=O)Nc2ccc(Cl)c3c(Cl)c[nH]c23)c(F)c1 [Compound 205] | > 100000 | < 1000 |
| O=C(NCCCC(=O)N1CCCC1)c1cccc(S(=O)(=O)Nc2ccc(Cl)c3c(Cl)c[nH]c23)c1F [Compound 206] | < 1000 | < 1000 |
| O=C(NCCCC(=O)N1CCCC1)c1ccc(S(=O)(=O)Nc2ccc(Cl)c3c(Cl)c[nH]c23)c(F)c1 [Compound 207] | < 1000 | < 1000 |
| O=C(NCCCc1ccc(Cl)cc1)c1cccc(S(=O)(=O)Nc2ccc(Cl)c3c(Cl)c[nH]c23)c1F [Compound 208] | > 100000 | > 100000 |
| O=C(NCCCc1ccc(Cl)cc1)c1ccc(S(=O)(=O)Nc2ccc(Cl)c3c(Cl)c[nH]c23)c(F)c1 [Compound 209] | > 100000 | 1000 to 10000 |
| CC[C@H](NC(=O)c1cccc(S(=O)(=O)Nc2ccc(Cl)c3c(Cl)c[nH]c23)c1F)c1ccc2c(c1)OCCO2 [Compound 210] | 1000 to 10000 | 1000 to 10000 |
| CC[C@H](NC(=O)c1ccc(S(=O)(=O)Nc2ccc(Cl)c3c(Cl)c[nH]c23)c(F)c1)c1ccc2c(c1)OCCO2 [Compound 211] | 1000 to 10000 | 1000 to 10000 |
